The values below come from ChEMBL document CHEMBL1201862, “PubChem BioAssay data set” (2004).

Test systems include DLD-1; DMS-114; DMS-273; HOP-18; KM-20L2; SNB-78; XF498; LXFL 529.
Assay in all cases: NCI tumour cell line growth inhibition, 48 h

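Values below derive from 48-hour exposures of cells grown in 96-well plates, with endpoints linearly interpolated between the two concentrations bracketing the appropriate inhibition level. GI50 = concentration required for 50% inhibition of growth.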 The source made the active and inactive calls. No stated cut-off is given here; in the data, active = GI50 up to about 1.1 µM and inactive = higher. Where only a bound is given, the exact number is not on record here.

Turning to `C=C1[C@@H](C)[C@H]2[C@H](Cc3ccccc3)NC(=O)[C@]23OC(=O)/C=C/[C@H](O)CCC[C@@H](C)C/C=C/[C@H]3[C@@H]1O`, the GI50 was 0.828 µM (active) with DLD-1; 14.5 µM (inactive) with DMS-114; 8.93 µM (inactive) with DMS-273; 0.156 µM (active) in the test with HOP-18; 15.2 µM (inactive) in the test on KM-20L2; 1.03 µM (active) in the test on SNB-78. In addition, the GI50 with XF498 was 0.571 µM (active).
As for `N=C(N)NS(=O)(=O)c1ccc(NC(=O)c2cccc3cc4ccccc4nc23)cc1`, the GI50 in the test with DLD-1 was > 100 µM (inactive); with DMS-114, 97.5 µM (inactive); in the test with DMS-273 it was > 100 µM (inactive); in the test with KM-20L2 it was > 100 µM (inactive); in the test on LXFL 529 it was 21.7 µM (inactive); in the test on SNB-78, 40.6 µM (inactive). Also, in the test with XF498, the GI50 was 99.5 µM (inactive).
As to `Cc1cccc(-n2c(N)c(-c3nc4ccccc4[nH]3)sc2=S)c1`, the GI50 in the test on DLD-1 is 25.1 µM (inactive); in the test on DMS-114, 22.8 µM (inactive); in the test on DMS-273, 20.1 µM (inactive); with HOP-18 it was 47.3 µM (inactive); in the test with LXFL 529 it was 21 µM (inactive).
In the case of `Cc1cn([C@H]2C[C@H](N=[N+]=[N-])[C@@H](CO)O2)c(=O)[nH]c1=O` [ZIDOVUDINE], the GI50 was > 100 µM (inactive) in the test on DLD-1; > 95.5 µM (inactive) in the test on DMS-114; > 100 µM (inactive) in the test on DMS-273; > 100 µM (inactive) in the test with HOP-18; > 100 µM (inactive) in the test on KM-20L2.
With `COc1ccc([N+]2=NC(c3ccc([N+](=O)[O-])cc3)=NN(c3ccccc3)C2)cc1`, the GI50 in the test on DLD-1 was 26.5 µM (inactive); in the test with DMS-114 it was 40.1 µM (inactive); with DMS-273, > 10 µM (inactive); with KM-20L2, 49.4 µM (inactive); in the test with LXFL 529, 27.1 µM (inactive); in the test on SNB-78, > 100 µM (inactive). Further, in the test with XF498, the GI50 is 55.6 µM (inactive).
Turning to `COc1ccc(CC2C(=O)NC(C)C(=O)N(C)C3C(=O)N(C)C(Cc4ccc(O)c(c4)Oc4ccc(cc4)C3O)C(=O)NC(C)C(=O)NC(C)C(=O)N2C)cc1` (stereo not given), the GI50 was 0.321 µM (active) in the test on DLD-1; 0.00145 µM (active) in the test with DMS-114; 0.0123 µM (active) in the test on DMS-273; 0.00195 µM (active) in the test on HOP-18; 0.0246 µM (active) with KM-20L2; 0.00188 µM (active) with SNB-78. Moreover, the GI50 with XF498 was 0.0131 µM (active).
For the molecule `CN/C(=N/C#N)NCc1ccccc1`, the GI50 with DLD-1, with DMS-114, with DMS-273, with KM-20L2, in the test with LXFL 529 and in the test on SNB-78 was > 100 µM (inactive) each time. Moreover, in the test on XF498, the GI50 was > 100 µM (inactive).
Consider `NC(=S)N/N=C(/CCN1CCCC1)CC(C1=C(O)C2=CCCCC2OC1=O)c1ccccc1` (stereo not given), for which the GI50 in the test with DLD-1, in the test with HOP-18, in the test on KM-20L2, in the test on LXFL 529, with SNB-78 and in the test with XF498 was > 100 µM (inactive) in each case.
`C=C[Si](C)(C)COC(=O)/C(C#N)=C/C=C/c1ccccc1`: the GI50 was > 100 µM (inactive) in the test on DLD-1; > 100 µM (inactive) with DMS-114; 85.7 µM (inactive) in the test with DMS-273; > 100 µM (inactive) in the test with HOP-18; > 100 µM (inactive) in the test on KM-20L2; 47.5 µM (inactive) in the test with LXFL 529. Further, in the test on SNB-78, the GI50 was > 100 µM (inactive).
Consider `O=C1C2=C(N[C@@H](c3ccccc3)[C@H](c3ccccc3)N2)C(=O)c2ccccc21`, for which the GI50 with DLD-1, in the test with DMS-114, with DMS-273, in the test on LXFL 529, in the test with SNB-78 and in the test on XF498 was > 100 µM (inactive) throughout.
Turning to `CC12CC(=O)NN=C1c1ccccc1C2` (stereo not given), the GI50 in the test with DLD-1, with DMS-114, in the test with DMS-273, with KM-20L2, with SNB-78 and with XF498 was > 100 µM (inactive) each time.
